In a melting point compilation (Tetko et al.; mined from patent text by program, amines drawn as free bases though some values may be those of a salt) one finds melting point data, which are given here for 89 compounds.

Where only a bound is given, the exact number is not on record here.

The melting point is the temperature of the solid-liquid transition. The compound `Cc1nc(OCCCc2cc(OC(C)C)nn2Cc2ccc(Cl)cc2Cl)c(CC#N)s1` yielded a melting point of 92 to 93 °C. The result for `COc1ccc2c(c1)C(=O)C(O)=C([N+](=O)[O-])C2=O` reads 152 to 155 °C. The same measure for `CCC(=O)NS(=O)(=O)c1ccc(-c2cc(-c3nc(-c4ccc(C(F)(F)F)cc4)cc(C(F)(F)F)n3)ccn2)s1`: 257 °C; for `Cc1c(-c2ccnnc2)ssc1=S`: 146 °C. The same measure for `CC(C)Sc1nc2c(cc1C#N)C(=O)CC(C)(C)C2`: 135 to 136 °C. Take `CNC(=O)n1sc(Cc2ccccc2)nc1=O`: the melting point came out at 146 °C. Regarding `O=C(O)c1ccc(Oc2ccccc2Oc2ccc(C(=O)O)cc2)cc1`, the melting point lay within 255 to 257 °C. `CCOC(=O)Cn1nnnc1S(=O)(=O)c1ccc(C)cc1` came in with a melting point of 98 to 100 °C. The same measure for `CC=NNC1=NCCc2ccccc21`: 152 to 154 °C; for `OC1CCc2oc3c(Cl)cc(Br)cc3c2C1` (single isomer, unassigned; (-)): 236 to 240 °C. The same measure for `CC(=O)N(CCCn1cncn1)C1=Nc2cccc3cccc1c23`: 128 to 129 °C. The result for `CCc1cn(C2CC(O)C(CCCNC(=O)Cc3c(Cl)cccc3Cl)O2)c(=O)[nH]c1=O` (centres undefined) reads 227 to 229 °C; that for `S=C(NCc1cccnc1)c1[nH]c2ccc(Cl)cc2c1-c1ccccc1`, 240 to 241 °C; that for `O=C(O)Cc1ccc(C(=O)O)cc1Sc1ccc(F)cc1`, 218 to 221 °C.

For the compound `COCCc1nc2c(N)nc3ccccc3c2n1CCCNS(C)(=O)=O`, the melting point was in the range of 193 to 194 °C.

As to `Cc1cc(C(=O)CCCC(=O)c2cc(C)c(O)c(C(C)(C)C)c2)cc(C(C)(C)C)c1O`, the melting point fell in the range of 156 to 158 °C. The result for `c1ccc(C2NCCc3sccc32)cc1` (centres undefined) reads 79.8 to 80.7 °C; that for `Oc1cccc2cc3ccccc3nc12`, 115 °C. The same measure for `CC(=O)c1cc(C=O)c2occc2c1`: 91 to 93 °C. The same measure for `COc1ccc(CNC(=O)c2cc([N+](=O)[O-])ccc2N)cc1`: 189 to 191 °C; for `COc1cc(Nc2nccc(-c3sc(N)nc3C)n2)cc(OC)c1`: 269 to 271 °C.

In the case of `c1cn(-c2nc(N3CCOCC3)nc(N3CCOCC3)n2)cn1`, the melting point lay within 248 to 250 °C. The same measure for `CCOC(=O)N1CCN(c2ccc(C3=NNC(=O)CC3C)cc2N)CC1` (centres undefined): 193 to 195 °C; for `CC=C1C(=O)c2ccccc2OC1c1ccccc1` (centres undefined): 47 to 49 °C. Take `c1ccc2nc(C3CCCS3)ccc2c1` (centres undefined): the melting point worked out at 63 °C.

Compound `COc1cc(OC)c2c(=O)c3c(Cl)ccc([N+](=O)[O-])c3[nH]c2c1` returned a melting point of 291 to 294 °C.

With `CCOC(=O)CNC(=O)CC(O)CCl` (centres undefined), the melting point fell in the range of 53 to 54 °C. `COc1ccc(Nc2nc(NN3CCCCCC3)nc(N(C)C3CCNCC3)n2)cc1Cl` gave a melting point of 81 °C. The compound `CC(=O)N1CCC(Nc2nc3ccccc3n2Cc2ccc(CO)o2)CC1` displayed a melting point of 214 °C. The same measure for `CC(C)(C(=O)c1ccccc1OCC(=O)O)N1CCN(c2ccncc2)CC1`: 278 to 279 °C; for `CC(=O)Nc1cccc(-c2ccnc3c(C(=O)c4ccco4)cnn23)c1`: 195 to 196 °C; for `O=[N+]([O-])c1ccc(C(O)c2ncco2)c(Cl)c1` (centres undefined): 158 to 160 °C. For `CC(C)NC[C@H](O)COc1ccc(OCc2ccccc2)cc1`, the melting point was 93 to 95 °C. The result for `COc1c(C)cnc(CSc2nc3cc(OC(F)(F)F)ccc3[nH]2)c1C` reads 152 to 154 °C; that for `CCCCCCCC/C=C\CCCCCCCC(=O)NCCNC(=O)CCNC(=O)C1OC(C)(C)OCC1(C)C` (centres undefined), 110 to 112 °C. In turn, `Oc1ccc(-c2cc3cc(F)cc(F)c3o2)cc1` showed a melting point of 152 to 154 °C. The same measure for `CN(CCOc1ccc(Cn2cc(CCC(=O)O)c(-c3ccccc3)c2)cc1)c1ccccn1`: 110 to 111 °C. The same measure for `O=C(N[C@H]1CCN(CCc2ccc(F)cc2)C1)n1c2ccccc2c2ccccc21`: 107 to 108 °C. The result for `Cc1cc(N=CN(C)C)c(C)cc1Cc1cccc(C(F)(F)F)c1` reads 75 to 77 °C; that for `COc1cccc2c(Nc3ccccc3C)nccc12`, 111 to 112 °C; that for `COc1cccc(C(=NO)c2sccc2Br)c1`, 100 to 103 °C. In turn, `CC1(C)OC(=O)C(Oc2ccc(Cl)c(Cl)c2)=C1c1ccc(S(C)(=O)=O)cc1` had a melting point of 144 to 145 °C. The result for `COc1ccc2c(c1)-c1noc(N3CCCNCC3)c1CC2` reads 106 to 109 °C; that for `COC(=O)c1cc(C#N)ccc1Cl`, 100 to 103 °C; that for `CCn1ncc2c(NCc3ccccc3)c3ccccc3nc21`, 130 to 132 °C. Compound `CC1=NN(c2cccc(S(N)(=O)=O)c2)C(=O)C1=c1[nH]c(=c2[nH]c(=C3C(=O)N(c4cccc(S(N)(=O)=O)c4)N=C3C)c3ccccc23)c2ccccc12` returned a melting point above 300 °C. The same measure for `O=C(c1ccc([N+](=O)[O-])cc1)N1Cc2ccccc2C(c2ccccc2Cl)c2ccccc21` (centres undefined): 178 to 181 °C. The same measure for `O=C(c1ccccc1)c1ccc(SCCO)cc1`: 49 to 51 °C; for `CCOC(=O)c1cc(CC)sc1Nc1c(Cl)cccc1[N+](=O)[O-]`: 67 to 70 °C. `COCCn1c(C)c(C(=O)c2c(Cl)c(Cl)c(Cl)c(Cl)c2C(=O)O)c2ccccc21` came in with a melting point of 182 to 184 °C. The same measure for `CCOC(=O)C(C(=O)OCC)c1cc(OC)ccc1[N+](=O)[O-]`: 92 to 93 °C; for `O=C(O)C(=NO)c1ccc(OCCOc2ccc3ccccc3c2)cc1`: 178 to 179 °C. Consider `Brc1ccc(Br)c2nsnc12`, for which the melting point fell in the range of 181 to 183 °C. The same measure for `Cc1ccc(-n2c(=O)nc(N(C)C)n(C)c2=O)cc1C`: 189 to 191 °C; for `CN1C(=O)CN(C(=O)N2CC(=O)N(C)c3ccc(Cl)cc3C2c2ccccc2)C(c2ccccc2)c2cc(Cl)ccc21` (centres undefined): 263 to 266 °C. The same measure for `CCCOc1nc2sc(Cl)cc2c(=O)n1CCC`: 62 to 65 °C; for `CCOC(=O)C1=C(C)NC(C)=C(C(=O)OCCN)C1c1cccc([N+](=O)[O-])c1` (centres undefined): 137 to 139 °C.

For the compound `O=C1Nc2cccc(-c3ccc(Cl)cc3Cl)c2/C1=C/c1ccc[nH]1`, the melting point was 185 to 187 °C.

`CCOC(=O)C(C(=O)OCC)=C(SCc1ccc(OC)cc1)SCc1ccc(OC)cc1` showed a melting point of 57 to 59 °C. The same measure for `CCC(OC(C)=O)c1ccc(Cl)c2nc3n(c12)CCCN3c1ccc(OC)cc1Cl` (centres undefined): 178 to 180 °C; for `CC[C@H](C)[C@H](NC(=O)O[C@@H](CC(C)C)C(=O)OCc1ccccc1)C(N)=O`: 140 to 141 °C. The result for `COc1cc(Nc2c(C#N)cnc3cc(-c4csc(CN5CCN(C)CC5)c4)sc23)c(Cl)cc1Cl` reads 224 to 226 °C. The same measure for `O=C(NCCCCCCCCCCCO[N+](=O)[O-])c1ccc(N2CCNCC2)nc1`: 78 to 80 °C; for `NC(=O)c1c(F)ccc(OCc2nc3cc(-c4ccncc4)ccc3s2)c1F`: 255 to 258 °C; for `O=C(O)c1[nH]c2cc(Cl)cc(Cl)c2c1C=C1CC(=O)N(c2ccccc2)C1=O`: above 250 °C. On to `CC(C)(C)OC(=O)NCC1CN(c2cccc(Cl)n2)C1`, for which the melting point lay in the range of 124 to 126 °C. The compound `Cc1cc(N2CCC3(CC2)OCCO3)c2cc(C)c(-c3ccc(Cl)cc3Cl)n2n1` showed a melting point of 193 to 196 °C. The result for `OC(CNC1CC1)c1ccc(Br)cc1` (centres undefined) reads 105 to 107 °C; that for `C=CCNC(=O)N=C(O)c1cc(C(=O)O)ccc1C(=O)O`, 230 to 232 °C; that for `N#CNC=Nc1ccc(-c2ncc[nH]2)cc1`, 202 to 203 °C. Compound `CC(C)(C)OC(=O)c1cc(N=Nc2ccccc2CCC(=O)O)ccc1O` displayed a melting point of 86 to 88 °C. The same measure for `O=C(Cc1ccc(O)c([N+](=O)[O-])c1)N[C@H]1C[C@H](C(=O)O)Nc2cc(Cl)cc(Cl)c21` (relative stereo): 245 to 247 °C.

In turn, `CCOC(=O)CC(=O)c1cc(F)c(F)c(F)c1F` had a melting point of 47 to 49 °C. As for `CCN(CC)c1ccc2c(c1)CC(=O)N2`, the melting point lay within 122 to 124 °C. As to `Cc1cc(-c2ccc(Cl)cc2)cn2cc(C(=O)NC(Cc3ccc(OCc4ccccc4)cc3)C(=O)O)nc12` (centres undefined), the melting point is 249 to 250 °C. The same measure for `O=C(O)c1cn(C2CC2)c2nc(O)c(F)cc2c1=O`: 325 to 327 °C. Regarding `Cc1ccc(Cn2ccc3cc(Br)ccc32)cc1`, the melting point is 56 to 57 °C.

Regarding `CC1(O)CCN(C(=O)C(c2ccccc2)n2cnc3[nH]ncc3c2=S)CC1` (centres undefined), the melting point fell in the range of 140 to 144 °C. The result for `CC1(C)CCOC1(O)C(Cc1ccc(Cl)cc1)n1cncn1` (centres undefined) reads 98 °C; that for `CC(=O)C(=Cc1cccc(C#N)c1)C(C)=O`, 63 to 64 °C. Consider `CCCCCCCCOc1ccc(C(=O)NNc2nc(NNC(=O)c3ccc(OCCCCCCCC)cc3O)nc(N(CCC)CCC)n2)c(O)c1`, for which the melting point fell in the range of 195 to 196 °C. As to `Nc1c(-c2ccc(-c3ccccc3F)cc2)nc2ccc(F)cc2c1C(=O)O`, the melting point is 248 to 250 °C.

As for `CCOc1nnc(NCc2ccc(OC)c(Cl)c2)c2cc(Cl)ccc12`, the melting point lay within 111 to 115 °C. The same measure for `COc1ccc(-c2ccc(-c3ccc(OC)cc3)c(-c3ccc(OCc4ccccc4)cc3)n2)cc1`: 99 to 102 °C.

As for `Nc1ncc(-c2ccc(F)cc2)cc1[N+](=O)[O-]`, the melting point was 232 °C. The result for `CC1=NC=CC(=O)C1OCc1ccccc1` (centres undefined) reads 162 to 163 °C. Regarding `FC(F)(F)c1ccc(C2=NN(C(=S)Nc3ccc(Cl)cc3)CC2c2ccccc2)cc1` (centres undefined), the melting point lay within 208 to 210 °C. The same measure for `CCc1cc(O)n2ccnc2n1`: 93 to 94 °C; for `CCCCCCCCSCN1CN(CSCCCCCCCC)c2cccc3cccc1c23`: 52 to 56 °C.
